# Structures can show the parent of a compound that is named as a salt.
# Experiments:
# [1] = test system: VSV-G PP; type: cell-based, vesicular stomatitis virus
# [2] = ATP content cytotoxicity assay; conditions: human, HEK293-ACE2 cells
# [3] = test system: SARS-CoV-2-S PP (Wuhan-Hu-1 spike); assay: microbe, parasite or virus in culture; type: cell-based; conditions: Severe acute respiratory syndrome coronavirus 2, read-out: PP EC50
# [4] = test system: SARS-CoV-2 (USA_WA1/2020); type: cell-based
SMILES,potency in the VSV-G PP entry counter assay compared with SARS-CoV-2-S PP entry [1],EC50 at 48 h [2],EC50 [3],protective effect against cell death caused by the virus (CPE rescue) [4]
CC(C)OC(=O)OCOP(=O)(CO[C@H](C)Cn1cnc2c(N)ncnc21)OCOC(=O)OC(C)C [tenofovir disoproxil fumarate],same potency,,,
"COc1cc(N2CCC(N3CCN(C)CC3)CC2)ccc1Nc1ncc(Cl)c(Nc2ccccc2P(C)(C)=O)n1 [Brigatinib, brigatinib]",,670 nM,4300 nM,
"CCOC(=O)[C@H]1O[C@@H]1C(=O)N[C@@H](CC(C)C)C(=O)NCCC(C)C [Aloxistatin, aloxistatin]",,> 50000 nM,190 nM,
"Cc1cccc(/C=N/Nc2cc(N3CCOCC3)nc(OCCc3ccccn3)n2)c1 [Apilimod, apilimod]",,9310 nM,120 nM,
C[C@@H]1CCO[C@H]2Cn3cc(C(=O)NCc4ccc(F)cc4F)c(=O)c(O)c3C(=O)N12 [dolutegravir],same potency,,,
"CCCC[C@@H](C=O)NC(=O)[C@H](CC(C)C)NC(=O)OCc1ccccc1 [Calpeptin, calpeptin]",,> 50000 nM,1200 nM,
"Oc1ccc(Cl)cc1Cc1cc(Cl)ccc1O [Dichlorophen, dichlorophen]",,,30 nM,not confirmed
COc1cc2c(cc1Cc1cccc(Cl)c1F)c(=O)c(C(=O)O)cn2[C@H](CO)C(C)C [elvitegravir],same potency,,,
Nc1ncnc2c1ncn2CCOCP(=O)(O)O [adefovir],same potency,,,

# From publication doi:10.1101/2021.10.04.463106, “A high throughput screening assay for inhibitors of SARS-CoV-2 pseudotyped particle entry” (bioRxiv, 2021)
